{"source": "patent US8569484B2", "about": "“Heterocyclic urea derivatives and methods of use thereof” (Astrazeneca AB, priority 2009, dated 2013)"}
{"target": "S. aureus GyrB ATPase (Staphylococcus aureus, UniProt P0A0K8)", "sequence (P0AES4 whole entry)": "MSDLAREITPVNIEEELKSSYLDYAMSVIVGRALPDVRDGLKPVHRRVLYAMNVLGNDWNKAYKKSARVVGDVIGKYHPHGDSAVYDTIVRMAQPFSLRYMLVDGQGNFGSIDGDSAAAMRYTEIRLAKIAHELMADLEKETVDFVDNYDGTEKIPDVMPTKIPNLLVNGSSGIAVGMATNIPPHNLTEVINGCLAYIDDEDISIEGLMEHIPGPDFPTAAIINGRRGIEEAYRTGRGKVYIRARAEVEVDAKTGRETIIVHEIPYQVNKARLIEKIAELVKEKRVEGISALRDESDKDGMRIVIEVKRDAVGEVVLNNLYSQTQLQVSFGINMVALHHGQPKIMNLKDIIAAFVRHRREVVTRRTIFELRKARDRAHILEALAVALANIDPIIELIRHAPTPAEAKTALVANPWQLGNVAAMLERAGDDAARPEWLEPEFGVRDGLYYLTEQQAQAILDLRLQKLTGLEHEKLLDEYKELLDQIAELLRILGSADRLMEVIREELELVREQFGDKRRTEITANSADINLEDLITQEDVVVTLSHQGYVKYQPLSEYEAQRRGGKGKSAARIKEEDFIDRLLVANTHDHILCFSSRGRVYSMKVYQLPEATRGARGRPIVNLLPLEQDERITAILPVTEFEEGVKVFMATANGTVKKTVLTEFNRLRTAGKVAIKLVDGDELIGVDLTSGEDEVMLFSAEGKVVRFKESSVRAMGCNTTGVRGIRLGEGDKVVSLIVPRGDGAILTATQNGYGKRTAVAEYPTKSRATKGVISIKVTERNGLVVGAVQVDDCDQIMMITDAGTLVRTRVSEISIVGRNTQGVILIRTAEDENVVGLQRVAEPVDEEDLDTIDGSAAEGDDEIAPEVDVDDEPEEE", "sequence (P0A0K8 whole entry)": "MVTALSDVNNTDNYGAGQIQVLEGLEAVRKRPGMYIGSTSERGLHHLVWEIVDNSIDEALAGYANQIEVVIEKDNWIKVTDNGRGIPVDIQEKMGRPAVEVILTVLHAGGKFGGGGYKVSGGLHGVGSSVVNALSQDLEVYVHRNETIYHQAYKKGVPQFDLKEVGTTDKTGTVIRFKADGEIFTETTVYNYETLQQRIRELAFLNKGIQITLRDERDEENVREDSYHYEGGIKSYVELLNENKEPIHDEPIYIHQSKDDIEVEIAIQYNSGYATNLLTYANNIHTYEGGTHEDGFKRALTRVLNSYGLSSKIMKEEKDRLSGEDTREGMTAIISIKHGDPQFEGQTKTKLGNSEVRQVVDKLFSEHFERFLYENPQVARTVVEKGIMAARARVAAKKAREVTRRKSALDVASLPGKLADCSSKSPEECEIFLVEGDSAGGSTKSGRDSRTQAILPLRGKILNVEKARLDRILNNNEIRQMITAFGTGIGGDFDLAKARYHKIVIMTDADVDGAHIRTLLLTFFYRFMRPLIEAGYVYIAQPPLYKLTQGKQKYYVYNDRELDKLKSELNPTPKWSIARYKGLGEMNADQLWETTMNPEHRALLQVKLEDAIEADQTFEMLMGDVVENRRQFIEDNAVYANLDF", "assay": "S. aureus GyrB ATPase inhibition (ammonium molybdate/malachite green phosphate detection)", "type": "biochemical", "conditions": "1 μM compound; S. aureus GyrB ATPase", "method": "(§1) S. aureus GyrB ATPase Inhibition Activity: Compounds may be tested for inhibition of S. aureus GyrB ATPase activity using an ammonium molybdate/malachite green-based phosphate detection assay (Lanzetta, P. A., L. J. Alvarez, P. S. Reinach, and O. A. Candia, 1979, 100: 95-97). Assays can be performed in multiwell plates in 30 μl reactions containing: 50 mM Hepes buffer pH 7.5, 75 mM ammonium acetate, 8.0 mM magnesium chloride, 0.5 mM ethylenediaminetetraacetic acid, 5% glycerol, 1.0 mM 1,4-Dithio-DL-threitol, 200 nM bovine serum albumin, 1.0 μg/ml sheared salmon sperm DNA, 250 pM E. coli GyrA, 250 pM S. aureus GyrB, 250 μM ATP, and compound in dimethylsulfoxide. Reactions can be quenched with 30 μl of ammonium molybdate/malachite green detection reagent containing 1.2 mM malachite green hydrochloride, 8.5 mM ammonium molybdate tetrahydrate, and 1 M hydrochloric acid. Plates can be read in an absorbance plate reader at 650 nm and percent inhibition values can be calculated using dimethylsulfoxide (2%)-containing reactions as 0% inhibition and EDTA-containing ([…]) reactions as 100% inhibition controls. An IC50 measurement of compound potency for each compound can be determined from reactions performed in the presence of 10 different compound concentrations.", "units": {"Percent Inhibition (1 μM)": "%"}}
{"smiles": "CCNC(=O)Nc1cc(-c2nc(C(F)(F)F)cs2)c(-c2cc3c(=O)c(C(=O)O)cn([C@H]4CCCN(CCN(CC)CC)C4)c3cn2)cn1", "note": "[Example 52, (5)-1-(1-(2-(diethylamino)ethyl)piperidin-3-yl)-6-(6-(3-ethylureido)-4-(4-(trifluoromethyl)thiazol-2-yl)pyridin-3-yl)-4-oxo-1,4-dihydro-1,7-naphthyridine-3-carboxylic acid]", "Percent Inhibition (1 μM)": 105}
{"target": "S. aureus GyrB ATPase (Staphylococcus aureus, UniProt P0A0K8)", "assay": "S. aureus GyrB ATPase inhibition (ammonium molybdate/malachite green phosphate detection)", "type": "biochemical", "conditions": "1 μM compound; S. aureus GyrB ATPase; read-out: Percent Inhibition (1 μM)", "method": "as §1", "units": {"inhibition at 1 µM": "%"}}
{"smiles": "CCNC(=O)Nc1cc(-c2nc(C(F)(F)F)cs2)c(-c2cnc3c(c2)c(=O)c(C(=O)O)cn3[C@H](COP(=O)(O)O)CC(C)C)cn1", "note": "[Example 25, 6-{6-[(ethylcarbamoyl)amino]-4-[4-(trifluoromethyl)-1,3-thiazol-2-yl]pyridin-3-yl}-1-[(2S)-4-methyl-1-(phosphonooxy)pentan-2-yl]-4-oxo-1,4-dihydro-1,8-naphthyridine-3-carboxylic acid]", "inhibition at 1 µM": 108}
{"smiles": "CCNC(=O)Nc1cc(-c2nc(C(F)(F)F)cs2)c(-c2cc3c(=O)c(C(=O)O)cn(CCN(C)C)c3cn2)cn1", "note": "[Example 47]", "inhibition at 1 µM": 98}
{"smiles": "CCNC(=O)Nc1cc(-c2nc(C(F)(F)F)cs2)c(-c2cc3c(=O)c(C(=O)O)cn(CCN4CCN(C)CC4)c3nc2N2CC[C@@H](CN)C2)cn1", "note": "[Example 60]", "inhibition at 1 µM": 101}
{"smiles": "CCNC(=O)Nc1cc(-c2nc(C(F)(F)F)cs2)c(-c2cc3c(=O)c(C(=O)O)cn(CCN4CCCC4)c3cn2)cn1", "note": "[Example 67]", "inhibition at 1 µM": 93}
{"smiles": "CCNC(=O)Nc1cc(-c2nc(C(F)(F)F)cs2)c(-c2cc3c(=O)c(C(=O)O)cn(CCN4CCOCC4)c3cn2)cn1", "note": "[Example 69]", "inhibition at 1 µM": 103}
{"smiles": "CCNC(=O)Nc1cc(-c2nc(C(F)(F)F)cs2)c(-c2cnc3c(c2)c(=O)c(C(=O)O)cn3[C@H](CO)C(C)(C)C)cn1", "note": "[Example 12, 6-{6-[(ethylcarbamoyl)amino]-4-[4-(trifluoromethyl)-1,3-thiazol-2-yl]pyridin-3-yl}-1-[(2S)-1-hydroxy-3,3-dimethylbutan-2-yl]-4-oxo-1,4-dihydro-1,8-naphthyridine-3-carboxylic acid]", "inhibition at 1 µM": 104}
{"smiles": "CCNC(=O)Nc1cc(-c2nc(C(F)(F)F)cs2)c(-c2cnc3c(c2)c(=O)c(C(=O)O)cn3CCOP(=O)(O)O)cn1", "note": "[Example 14, 6-{6-[(ethylcarbamoyl)amino]-4-[4-(trifluoromethyl)-1,3-thiazol-2-yl]pyridin-3-yl}-4-oxo-1-[2-(phosphonooxy)ethyl]-1,4-dihydro-1,8-naphthyridine-3-carboxylic acid]", "inhibition at 1 µM": 103}
{"smiles": "CCNC(=O)Nc1cc(-c2nc(C(F)(F)F)cs2)c(-c2cnc3c(c2)c(=O)c(C(=O)O)cn3C[C@H]2CCCN2CC)cn1", "note": "[Example 33]", "inhibition at 1 µM": 102}
{"smiles": "CCNC(=O)Nc1cc(-c2nc(C(F)(F)F)cs2)c(-c2cnc3c(c2)c(=O)c(C(=O)O)cn3CCN(C)C)cn1", "note": "[Example 16, 1-[2-(dimethylamino)ethyl]-6-{6-[(ethylcarbamoyl)amino]-4-[4-(trifluoromethyl)-1,3-thiazol-2-yl]pyridin-3-yl}-4-oxo-1,4-dihydro-1,8-naphthyridine-3-carboxylic acid]", "inhibition at 1 µM": 104}
{"smiles": "CCNC(=O)Nc1cc(-c2nc(C(F)(F)F)cs2)c(-c2cc3c(=O)c(C(=O)O)cn(C(COC)COC)c3cn2)cn1", "note": "[Example 44]", "inhibition at 1 µM": 102}
{"smiles": "CCCN1CC[C@H](Cn2cc(C(=O)O)c(=O)c3cc(-c4cnc(NC(=O)NCC)cc4-c4nc(C(F)(F)F)cs4)ncc32)C1", "note": "[Example 73]", "inhibition at 1 µM": 108}
{"smiles": "CCNC(=O)Nc1cc(-c2nc(-c3ccccc3)cs2)c(-c2cc3c(=O)c(C(=O)O)cn([C@H]4CCCN(CCN5CCOCC5)C4)c3cn2)cn1", "note": "[Example 63]", "inhibition at 1 µM": 105}
{"smiles": "CCNC(=O)Nc1cc(-c2nc(C(F)(F)F)cs2)c(-c2cc3c(=O)c(C(=O)O)cn(C[C@@H]4CCCN4CC)c3cn2)cn1", "note": "[Example 42]", "inhibition at 1 µM": 103}
{"smiles": "CCNC(=O)Nc1cc(-c2nc(-c3cnn(C)c3)cs2)c(-c2cc3c(=O)c(C(=O)O)cn(C4CC4)c3cn2)cn1", "note": "[Example 75]", "inhibition at 1 µM": 108}
{"smiles": "CCNC(=O)Nc1cc(-c2nc(C(F)(F)F)cs2)c(-c2cc3c(=O)c(C(=O)O)cn(CC)c3nc2N2CCC(N)C2)cn1", "note": "(centres unmarked) [Example 77]", "inhibition at 1 µM": 105}
{"smiles": "CCNC(=O)Nc1cc(-c2nc(C(F)(F)F)cs2)c(-c2cnc3c(c2)c(=O)c(C(=O)O)cn3CC)cn1", "note": "[Example 8, 1-Ethyl-6-{6-[(ethylcarbamoyl)amino]-4-[4-(trifluoromethyl)-1,3-thiazol-2-yl]pyridin-3-yl}-4-oxo-1,4-dihydro-1,8-naphthyridine-3-carboxylic acid]", "inhibition at 1 µM": 98}
{"smiles": "CCNC(=O)Nc1cc(-c2nc(-c3cnn(C)c3)cs2)c(-c2cc3c(=O)c(C(=O)O)cn(Cc4cn(C)cn4)c3cn2)cn1", "note": "[Example 76, 6-(6-(3-ethylureido)-4-(4-(1-methyl-1H-pyrazol-4-yl)thiazol-2-yl)pyridin-3-yl)-1-((1-methyl-1H-imidazol-4-yl)methyl)-4-oxo-1,4-dihydro-1,7-naphthyridine-3-carboxylic acid]", "inhibition at 1 µM": 109}
{"smiles": "CCNC(=O)Nc1cc(-c2nc(C(F)(F)F)cs2)c(-c2cc3c(=O)c(C(=O)O)cn(CC)c3cn2)cn1", "note": "[Example 68]", "inhibition at 1 µM": 110}
{"smiles": "CCNC(=O)Nc1cc(-c2nc(-c3ccccc3)cs2)c(-c2cnc3c(c2)c(=O)c(C(=O)O)cn3[C@H]2CCCN(CCN(CC)CC)C2)cn1", "note": "[Example 35]", "inhibition at 1 µM": 102}
{"smiles": "CCNC(=O)Nc1cc(-c2nc(C(F)(F)F)cs2)c(-c2cnc3c(c2)c(=O)c(C(=O)O)cn3CC2CCN(C)CC2)cn1", "note": "[Example 1, 6-(6-(3-Ethylureido)-4-(4-(trifluoromethyl)thiazol-2-yl)pyridin-3-yl)-1-((1-methylpiperidin-4-yl)methyl)-4-oxo-1,4-dihydro-1,8-naphthyridine-3-carboxylic acid]", "inhibition at 1 µM": 107}
{"smiles": "CCNC(=O)Nc1cc(-c2nc(C(F)(F)F)cs2)c(-c2cc3c(=O)c(C(=O)O)cn(C[C@@H]4CCCN4CC)c3nc2NCCN(C)C)cn1", "note": "[Example 36, 7-(2-(dimethylamino)ethylamino)-1-(((S)-1-ethylpyrrolidin-2-yl)methyl)-6-(6-(3-ethylureido)-4-(4-(trifluoromethyl)thiazol-2-yl)pyridin-3-yl)-4-oxo-1,4-dihydro-1,8-naphthyridine-3-carboxylic acid]", "inhibition at 1 µM": 100}
{"smiles": "CCNC(=O)Nc1cc(-c2nc(C(F)(F)F)cs2)c(-c2cc3c(=O)c(C(=O)O)cn(CC)c3nc2NCCN(C)C)cn1", "note": "[Example 37, 7-(2-(dimethylamino)ethylamino)-1-ethyl-6-(6-(3-ethylureido)-4-(4-(trifluoromethyl)thiazol-2-yl)pyridin-3-yl)-4-oxo-1,4-dihydro-1,8-naphthyridine-3-carboxylic acid]", "inhibition at 1 µM": 109}
{"smiles": "CCNC(=O)Nc1cc(-c2nc(C(F)(F)F)cs2)c(-c2cnc3c(c2)c(=O)c(C(=O)O)cn3[C@H](CO)CC(C)C)cn1", "note": "[Example 11, 6-{6-[(ethylcarbamoyl)amino]-4-[4-(trifluoromethyl)-1,3-thiazol-2-yl]pyridin-3-yl}-1-[(2S)-1-hydroxy-4-methylpentan-2-yl]-4-oxo-1,4-dihydro-1,8-naphthyridine-3-carboxylic acid]", "inhibition at 1 µM": 104}
{"smiles": "CCNC(=O)Nc1cc(-c2nc(C(F)(F)F)cs2)c(-c2cc3c(=O)c(C(=O)O)cn(Cc4cnn(C)c4)c3cn2)cn1", "note": "[Example 51, 6-(6-(3-ethylureido)-4-(4-(trifluoromethyl)thiazol-2-yl)pyridin-3-yl)-1-((1-methyl-1H-pyrazol-4-yl)methyl)-4-oxo-1,4-dihydro-1,7-naphthyridine-3-carboxylic acid]", "inhibition at 1 µM": 102}
{"smiles": "CCNC(=O)Nc1cc(-c2nc(C(F)(F)F)cs2)c(-c2cc3c(=O)c(C(=O)O)cn([C@H]4CCCN(CCN5CCOCC5)C4)c3cn2)cn1", "note": "[Example 48]", "inhibition at 1 µM": 101}
{"smiles": "CCNC(=O)Nc1cc(-c2nc(C(F)(F)F)cs2)c(-c2cc3c(=O)c(C(=O)O)cn(C4CCCCC4)c3cn2)cn1", "note": "[Example 39, 1-cyclohexyl-6-(6-(3-ethylureido)-4-(4-(trifluoromethyl)thiazol-2-yl)pyridin-3-yl)-4-oxo-1,4-dihydro-1,7-naphthyridine-3-carboxylic acid]", "inhibition at 1 µM": 102}
{"smiles": "CCNC(=O)Nc1cc(-c2nc(C(F)(F)F)cs2)c(-c2cc3c(=O)c(C(=O)O)cn(Cc4cn(C)cn4)c3cn2)cn1", "note": "[Example 50]", "inhibition at 1 µM": 99}
{"smiles": "CCNC(=O)Nc1cc(-c2nc(C(F)(F)F)cs2)c(-c2cnc3c(c2)c(=O)c(C(=O)O)cn3C2CC2)cn1", "note": "[Example 9, 1-Cyclopropyl-6-{6-[(ethylcarbamoyl)amino]-4-[4-(trifluoromethyl)-1,3-thiazol-2-yl]pyridin-3-yl}-4-oxo-1,4-dihydro-1,8-naphthyridine-3-carboxylic acid]", "inhibition at 1 µM": 96}
{"smiles": "CCNC(=O)Nc1cc(-c2nc(-c3ccccc3)cs2)c(-c2cc3c(=O)c(C(=O)O)cn(Cc4cn(C)cn4)c3cn2)cn1", "note": "[Example 65]", "inhibition at 1 µM": 98}
{"smiles": "CCNC(=O)Nc1cc(-c2nc(C(F)(F)F)cs2)c(-c2cc3c(=O)c(C(=O)O)cn(C[C@@H]4CCCN4CC)c3nc2N2CCN(C)CC2)cn1", "note": "[Example 58]", "inhibition at 1 µM": 104}
{"target": "S. aureus GyrB ATPase (Staphylococcus aureus, UniProt P0A0K8)", "assay": "S. aureus GyrB ATPase inhibition (ammonium molybdate/malachite green phosphate detection)", "type": "biochemical", "conditions": "read-out: Percent Inhibition (1 μM)", "method": "as §1", "units": {"inhibition at 1 µM": "%"}}
{"smiles": "CCNC(=O)Nc1cc(-c2nc(C(F)(F)F)cs2)c(-c2cnc3c(c2)c(=O)c(C(=O)OCCOP(=O)(O)O)cn3CC)cn1", "note": "[Example 20, 2-(phosphonooxy)ethyl 1-ethyl-6-{6-[(ethylcarbamoyl)amino]-4-[4-(trifluoromethyl)-1,3-thiazol-2-yl]pyridin-3-yl}-4-oxo-1,4-dihydro-1,8-naphthyridine-3-carboxylate]", "inhibition at 1 µM": 104}
